Test results from patent publication US9980479B2, “Method of reducing nematode damage” (Syngenta Crop Protection, LLC, priority 2004, dated 2018).
Read-outs that look alike come from different tables or passages of the source.

Key:
[1] = test system: nematodes (Pratylenchus spp.); conditions: tomato; for % yield increase over check / Total average weight of tomatoes per plant in gr: at harvest; for % damage of roots: drench 1, 14, 27 and 40 days after transplantation
Description: (§1) Tomato plants are transplanted into a field infested with nematodes (Pratylenchus spp.) and treated with the treatments indicated in Table II below 1, 14, 27 and 40 days after transplantation. The products are applied by drenching 100 ml spray solution per plant. Plot size is 24 m^2 with 4 replicates. At harvest (up to 19 weeks later), all tomatoes are collected and weighted. The check is an untreated control.

[2] = test system: nematodes (Meloidogyne spp.); conditions: tomato; for % yield increase over check / Total average weight of tomatoes per 100 plant in kgr: at harvest; for % root galling: drench 1, 18, 32 and 46 days after transplantation
Description: as §1, with “(Meloidogyne” for “(Pratylenchus”, “III” for “II”, “18, 32” for “14, 27”, “46” for “40”, “36.7” for “24”

[3] = test system: Meloidogyne; assay: Experiment 5: sandy soil cup test, live 2nd stage nematodes from eggs; type: in vivo; conditions: applied solution 3 ppm, 15 days of incubation
Description: (§2) 110 grams of dry sandy soil is put into plastic cups. The soil is treated by adding 25 ml of water containing given concentrations (in ppm) of chemicals to the soil. The soil and water is carefully mixed and thereafter 1 ml of water containing 12,000 eggs of Meloidogyne is added. After 15 days of incubation, the samples are analyzed for live 2nd stage nematodes by sieving the sand and rinsing with tap water. The amount of rinseate is adjusted to 20 ml. From the 20 ml, 3 samples of 1 ml are taken and nematodes counted, using a counting chamber.

[4] = test system: Meloidogyne; assay: Experiment 6: clay soil cup test, live 2nd stage nematodes from eggs; type: in vivo; conditions: applied solution 3 ppm, 15 days of incubation
Description: as §2, with “50” for “110”, “clay” for “sandy”, “50” for “25”, “mixed,” for “mixed”, “10.,000” for “12,000”, “clay,” for “sand”

[5] = test system: nematodes (Pratylenchus spp.); conditions: tomato; for % yield increase over check / Total average weight of tomatoes per treatment: at harvest; for % damage of roots: drench 1, 14, 27 and 40 days after transplantation
Description: as §1, with “I” for “II”

[6] = test system: nematodes (Meloidogyne spp.); conditions: tomato; for % yield increase over check / Total average weight of tomatoes per 100 plants: at harvest; for % average root galling: drench 1, 18, 32 and 46 days after transplantation
Description: as §1, with “(Meloidogyne” for “(Pratylenchus”, “IV” for “II”, “18, 32” for “14, 27”, “46” for “40”, “42.7” for “24”

N,N′-ethylenebis(hydroxyphenyl)glycines [EDDHA]
% yield increase over check ([1]; 500 g ai/ha): 11% | Total average weight of tomatoes per plant in gr ([1]; 500 g ai/ha): 3500 gr | % damage of roots ([1]; 500 g ai/ha): 18.5% | % yield increase over check ([1]; 1000 g ai/ha): 18% | Total average weight of tomatoes per plant in gr ([1]; 1000 g ai/ha): 3695 gr | % damage of roots ([1]; 1000 g ai/ha): 13.8% | % yield increase over check ([2]; 500 g ai/ha): 13% | Total average weight of tomatoes per 100 plant in kgr ([2]; 500 g ai/ha): 255 kgr | % root galling ([2]; 500 g ai/ha): 35% | % yield increase over check ([2]; 1000 g ai/ha): 17% | Total average weight of tomatoes per 100 plant in kgr ([2]; 1000 g ai/ha): 265 kgr | % root galling ([2]; 1000 g ai/ha): 26.1% | % reduction of live stages [3]: 0.1% | Number of live 2nd stage nematodes [3]: 1649 | % reduction of live stages [4]: 0.3% | Number of live 2nd stage nematodes [4]: 1197

O=C(O)CN(CCN(CC(=O)O)CC(=O)O)CC(=O)O [EDTA, ethylenediaminetetraacetic acid]
% yield increase over check ([5]; 500 g ai/ha): 12% | Total average weight of tomatoes per treatment ([5]; 500 g ai/ha): 784 kg | % damage of roots ([5]; 500 g ai/ha): 25.8% | % yield increase over check ([5]; 1000 g ai/ha): 17% | Total average weight of tomatoes per treatment ([5]; 1000 g ai/ha): 817 kg | % damage of roots ([5]; 1000 g ai/ha): 22.5% | % yield increase over check ([6]; 500 g ai/ha): 6% | Total average weight of tomatoes per 100 plants ([6]; 500 g ai/ha): 349 kg | % average root galling ([6]; 500 g ai/ha): 34.4% | % yield increase over check ([6]; 1000 g ai/ha): 10% | Total average weight of tomatoes per 100 plants ([6]; 1000 g ai/ha): 360 kg | % average root galling ([6]; 1000 g ai/ha): 23.7% | % reduction of live stages [3]: 0.1% | Number of live 2nd stage nematodes [3]: 1650 | % reduction of live stages [4]: 0.1% | Number of live 2nd stage nematodes [4]: 1200
